Results on 22 molecules are retold here after US20180244611A1, “Modulators of the Cystic Fibrosis Transmembrane Conductance Regulator Protein and Methods of Use” (AbbVie S.à.r.l., priority 2017, published 2018).

Assay [1] deals with T1, F508delCFTR (Homo sapiens, UniProt P13569, DEL508-508).
T1 construct: expressed in transfected cells; host or cells: CFBE41o- human lung-derived epithelial cells (CFBE41o-F508delCFTR-HRP), doxycycline-inducible
Kind of assay: Cell Surface Expression-Horse Radish Peroxidase (CSE-HRP) assay, test compound without co-corrector.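 As to Emax: percent of on-plate 2 µM positive control corrector response over DMSO.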 Type of assay: cell-based. As to conditions: for Emax: maximum at any tested concentration, normalized to positive control, without co-corrector; for EC50: test compound without co-corrector. In a few lines:
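Compound without co-corrector was tested at eight 3-fold concentrations, top 20 μM, for 18-24 h at 33° C on doxycycline-induced (0.5 μg/mL, 72 h) CFBE41o- F508delCFTR-HRP cells. After DPBS washes, luminol luminescence gave % activity relative to on-plate positive control minus DMSO; EC50 came from triplicate-plate sigmoidal fitting.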

Assay [2] addresses T1, F508delCFTR. Kind of assay: Cell Surface Expression-Horse Radish Peroxidase (CSE-HRP) assay, test compound with co-corrector.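 As to Maximum % activity (with co-corrector): percent of 2 µM positive control corrector over DMSO; co-corrector is that same compound.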 Type of assay: cell-based. As to conditions: with 2 μM co-corrector; for Maximum % activity (with co-corrector): maximum at any tested concentration, normalized to positive control. In a few lines:
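Surface-expression read-out: luminol luminescence from an HRP tag in the fourth exofacial loop of F508delCFTR, in doxycycline-induced (0.5 μg/mL, 72 h) CFBE41o- cells. Compound plus 2 μM co-corrector added for 18-24 h at 33° C., 8-point 3-fold series up to 20 μM. EC50 from a sigmoidal fit with variable Hill slope, normalised to positive control, triplicate plates.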

The structures appear in SMILES notation.

By Emax is commonly meant the greatest response seen or fitted, relative to the assay's reference. By EC50 is commonly meant the midpoint of the concentration-response curve. Higher therefore signals a need for much substance.

T1 sequence (P13569 with tags, fused parts or gaps DEL508-508): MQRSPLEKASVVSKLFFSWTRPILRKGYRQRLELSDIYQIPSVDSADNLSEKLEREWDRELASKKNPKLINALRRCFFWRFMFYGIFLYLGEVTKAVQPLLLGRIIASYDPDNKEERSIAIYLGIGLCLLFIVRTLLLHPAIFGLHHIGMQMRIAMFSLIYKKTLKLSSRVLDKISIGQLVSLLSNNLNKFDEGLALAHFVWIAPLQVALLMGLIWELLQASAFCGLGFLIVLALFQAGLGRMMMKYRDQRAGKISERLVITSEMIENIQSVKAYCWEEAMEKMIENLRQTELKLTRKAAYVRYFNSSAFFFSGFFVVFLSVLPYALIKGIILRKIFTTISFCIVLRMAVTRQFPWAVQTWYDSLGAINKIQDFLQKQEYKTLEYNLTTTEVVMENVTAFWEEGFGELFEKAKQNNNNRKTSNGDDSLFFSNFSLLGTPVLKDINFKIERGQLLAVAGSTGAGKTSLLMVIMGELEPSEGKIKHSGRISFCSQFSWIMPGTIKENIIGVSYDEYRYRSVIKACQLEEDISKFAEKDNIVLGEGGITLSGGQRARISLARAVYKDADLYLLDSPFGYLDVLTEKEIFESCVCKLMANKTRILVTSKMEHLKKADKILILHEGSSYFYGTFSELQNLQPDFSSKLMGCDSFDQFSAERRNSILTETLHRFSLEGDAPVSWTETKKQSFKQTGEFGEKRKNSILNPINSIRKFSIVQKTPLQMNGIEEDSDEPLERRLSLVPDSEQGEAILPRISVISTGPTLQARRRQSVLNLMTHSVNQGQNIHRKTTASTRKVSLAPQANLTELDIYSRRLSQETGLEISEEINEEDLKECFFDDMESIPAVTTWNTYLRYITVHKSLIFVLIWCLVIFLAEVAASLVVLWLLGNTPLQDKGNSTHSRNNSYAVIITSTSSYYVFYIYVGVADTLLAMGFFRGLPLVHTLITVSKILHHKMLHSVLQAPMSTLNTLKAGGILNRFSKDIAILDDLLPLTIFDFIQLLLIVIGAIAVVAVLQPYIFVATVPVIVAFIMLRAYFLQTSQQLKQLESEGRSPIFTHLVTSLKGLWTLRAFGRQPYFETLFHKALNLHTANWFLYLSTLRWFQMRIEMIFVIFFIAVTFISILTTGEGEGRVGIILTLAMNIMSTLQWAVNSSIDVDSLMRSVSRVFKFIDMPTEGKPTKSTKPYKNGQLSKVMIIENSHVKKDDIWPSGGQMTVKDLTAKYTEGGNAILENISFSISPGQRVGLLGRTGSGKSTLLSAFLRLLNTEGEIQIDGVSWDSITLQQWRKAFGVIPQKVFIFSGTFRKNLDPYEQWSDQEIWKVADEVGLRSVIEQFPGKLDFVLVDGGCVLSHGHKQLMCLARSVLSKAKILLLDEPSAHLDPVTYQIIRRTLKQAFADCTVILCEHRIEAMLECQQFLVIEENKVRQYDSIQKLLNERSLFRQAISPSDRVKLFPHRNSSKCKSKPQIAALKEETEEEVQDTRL

In assay [1], `COc1ccc(C2CCC2)c2c1CCC[C@@H]2C(=O)NS(=O)(=O)c1cccc2ccccc12` [Example I-60, (1S)-8-cyclobutyl-5-methoxy-N-(naphthalene-1-sulfonyl)-1,2,3,4-tetrahydronaphthalene-1-carboxamide] showed an Emax not below 150% and an EC50 of less than 3 µM. In assay [2], the “Maximum % activity (with co-corrector)” value is “+++ (≥350)” and the EC50 was less than 3 µM.

As to `COc1ccc(C2CCC2)c2c1CCC[C@H]2C(=O)NS(=O)(=O)c1cccc2ccccc12` [Example I-61, (1R)-8-cyclobutyl-5-methoxy-N-(naphthalene-1-sulfonyl)-1,2,3,4-tetrahydronaphthalene-1-carboxamide], in assay [1], the maximum response (Emax) was not below 150% and the 50% effective concentration (EC50) was less than 3 µM. Moreover, in assay [2], the “Maximum % activity (with co-corrector)” value is “+++ (≥350)” and the EC50 is less than 3 µM.

As for `CC[C@]1(C(=O)NS(=O)(=O)c2cccc3ccccc23)CCCc2cccc(Cl)c21` [Example I-64, (1S)-8-chloro-1-ethyl-N-(naphthalene-1-sulfonyl)-1,2,3,4-tetrahydronaphthalene-1-carboxamide], in assay [1], the maximal response (Emax) was not below 150% and the half-maximal effective concentration (EC50) is less than 3 µM. In addition, in assay [2], the “Maximum % activity (with co-corrector)” value is on record as “+++ (≥350)” and the EC50 was less than 3 µM.

In assay [1], `CC[C@@]1(C(=O)NS(=O)(=O)c2cccc3ccccc23)CCCc2cccc(Cl)c21` [Example I-65, (1R)-8-chloro-1-ethyl-N-(naphthalene-1-sulfonyl)-1,2,3,4-tetrahydronaphthalene-1-carboxamide] returned an Emax not below 150% and an EC50 of less than 3 µM. Further, in assay [2], the “Maximum % activity (with co-corrector)” value is listed as “+++ (≥350)” and the EC50 is less than 3 µM.

In assay [1], `CCC1(C(=O)NS(=O)(=O)c2cccc3ccn(C)c23)CCc2c(Cl)cccc21` (stereo not shown) [Example I-66, 4-chloro-1-ethyl-N-(1-methyl-1H-indole-7-sulfonyl)-2,3-dihydro-1H-indene-1-carboxamide] showed an Emax not below 150% and an EC50 of less than 3 µM. Also, in assay [2], the “Maximum % activity (with co-corrector)” value is given as “+++ (≥350)” and the EC50 was less than 3 µM.

In assay [1], `COc1ccc(CC(C)C)c2c1CCCC2C(=O)NS(=O)(=O)c1cccc2ccccc12` (stereo not shown) [Example I-67, 5-methoxy-8-(2-methylpropyl)-N-(naphthalene-1-sulfonyl)-1,2,3,4-tetrahydronaphthalene-1-carboxamide] had an Emax not below 150% and an EC50 of less than 3 µM. Also, in assay [2], the “Maximum % activity (with co-corrector)” value was “+++ (≥350)” and the 50% effective concentration (EC50) is less than 3 µM.

In assay [1], `COc1ccc(CC(C)C)c2c1C(C(=O)NS(=O)(=O)c1cccc3ccccc13)CCC2` (stereo not shown) [Example I-68, 8-methoxy-5-(2-methylpropyl)-N-(naphthalene-1-sulfonyl)-1,2,3,4-tetrahydronaphthalene-1-carboxamide] showed an Emax not below 150% and an EC50 of less than 3 µM. In assay [2], the “Maximum % activity (with co-corrector)” value is on record as “+++ (≥350)” and the EC50 is less than 3 µM.

For `COc1ccc(C2CCC2)c2c1C(C(=O)NS(=O)(=O)c1cccc3ccccc13)CCC2` (stereo not shown) [Example I-69, 5-cyclobutyl-8-methoxy-N-(naphthalene-1-sulfonyl)-1,2,3,4-tetrahydronaphthalene-1-carboxamide], in assay [1], the Emax is not below 150% and the EC50 was less than 3 µM. Besides, in assay [2], the “Maximum % activity (with co-corrector)” value was “+++ (≥350)” and the EC50 is less than 3 µM.

As for `COc1ccc(Cl)c2c1C(C(=O)NS(=O)(=O)c1cccc3ccccc13)CCC2` (stereo not shown) [Example I-70, 5-chloro-8-methoxy-N-(naphthalene-1-sulfonyl)-1,2,3,4-tetrahydronaphthalene-1-carboxamide], in assay [1], the Emax was not below 150% and the EC50 is less than 3 µM. Besides, in assay [2], the “Maximum % activity (with co-corrector)” value is recorded as “+++ (≥350)” and the EC50 was less than 3 µM.

In assay [1], `COc1ccc(Cl)c2c1[C@@H](C(=O)NS(=O)(=O)c1cccc3ccccc13)CC2` [Example I-71, (1S)-4-chloro-7-methoxy-N-(naphthalene-1-sulfonyl)-2,3-dihydro-1H-indene-1-carboxamide] had an Emax of 50 to 150% and an EC50 of 3 to 10 µM. For the same molecule, in assay [2], the “Maximum % activity (with co-corrector)” value was “++ (≥150 and <350)”; the half-maximal effective concentration (EC50) was in the range of 3 to 10 µM.

`COc1ccc(Cl)c2c1[C@H](C(=O)NS(=O)(=O)c1cccc3ccccc13)CC2` [Example I-72, (1R)-4-chloro-7-methoxy-N-(naphthalene-1-sulfonyl)-2,3-dihydro-1H-indene-1-carboxamide]: in assay [1], the maximal effect (Emax) was not below 150% and the EC50 was 3 to 10 µM. In assay [2], the “Maximum % activity (with co-corrector)” value is recorded as “+++ (≥350)” and the EC50 was less than 3 µM.

In assay [1], `COc1ccc(OC)c2c1CCCC2C(=O)NS(=O)(=O)c1cccc2ccccc12` (stereo not shown) [Example I-73, 5,8-dimethoxy-N-(naphthalene-1-sulfonyl)-1,2,3,4-tetrahydronaphthalene-1-carboxamide] had a maximal response (Emax) not below 150% and an EC50 of 3 to 10 µM. Also, in assay [2], the “Maximum % activity (with co-corrector)” value is “+++ (≥350)” and the concentration for a half-maximal effect (EC50) is less than 3 µM.

As to `CCC1(C(=O)NS(=O)(=O)c2cccc3c2ccn3C)CCc2c(Cl)cccc21` (stereo not shown) [Example I-74, 4-chloro-1-ethyl-N-(1-methyl-1H-indole-4-sulfonyl)-2,3-dihydro-1H-indene-1-carboxamide], in assay [1], the Emax was not below 150% and the EC50 was 3 to 10 µM. Besides, in assay [2], the “Maximum % activity (with co-corrector)” value was “+++ (≥350)” and the EC50 is less than 3 µM.

In assay [1], `COc1ccc(C)c2c1C(C(=O)NS(=O)(=O)c1cccc3ccccc13)CC2` (stereo not shown) [Example I-75, 7-methoxy-4-methyl-N-(naphthalene-1-sulfonyl)-2,3-dihydro-1H-indene-1-carboxamide] gave a maximal response (Emax) not below 150% and an EC50 of less than 3 µM. In addition, in assay [2], the “Maximum % activity (with co-corrector)” value was “+++ (≥350)” and the EC50 is less than 3 µM.

As to `COc1ccc(C2CCC2)c2c1C(C(=O)NS(=O)(=O)c1cccc3ccccc13)CC2` (stereo not shown) [Example I-76, 4-cyclobutyl-7-methoxy-N-(naphthalene-1-sulfonyl)-2,3-dihydro-1H-indene-1-carboxamide], in assay [1], the maximal effect (Emax) is not below 150% and the EC50 was 3 to 10 µM. Moreover, in assay [2], the “Maximum % activity (with co-corrector)” value was “+++ (≥350)” and the EC50 was less than 3 µM.

In assay [1], `COc1ccc(C2CCC2)c2c1C(C(=O)NS(=O)(=O)c1cccc3ncccc13)CC2` (stereo not shown) [Example I-77, 4-cyclobutyl-7-methoxy-N-(quinoline-5-sulfonyl)-2,3-dihydro-1H-indene-1-carboxamide] registered an Emax not below 150% and an EC50 of 3 to 10 µM. Moreover, in assay [2], the “Maximum % activity (with co-corrector)” value is recorded as “+++ (≥350)” and the EC50 was less than 3 µM.

In assay [1], `COc1ccc(Br)c2c1C(C(=O)NS(=O)(=O)c1cccc3nccn13)CC2` (stereo not shown) [Example I-78, 4-bromo-N-(imidazo[1,2-a]pyridine-5-sulfonyl)-7-methoxy-2,3-dihydro-1H-indene-1-carboxamide] showed a maximal response (Emax) not below 150% and an EC50 of 3 to 10 µM. Besides, in assay [2], the “Maximum % activity (with co-corrector)” value is reported as “+++ (≥350)” and the EC50 is less than 3 µM.

For `COc1ccc(Br)c2c1C(C(=O)NS(=O)(=O)c1cccc3ccccc13)C2` (stereo not shown) [Example I-79, 2-bromo-5-methoxy-N-(naphthalene-1-sulfonyl)bicyclo[4.2.0]octa-1,3,5-triene-7-carboxamide], in assay [1], the Emax is not below 150% and the EC50 lay in the range of 3 to 10 µM. Further, in assay [2], the “Maximum % activity (with co-corrector)” value is given as “+++ (≥350)” and the EC50 is less than 3 µM.

Take `COc1ccc(C2CCC2)c2c1[C@@H](C(=O)NS(=O)(=O)c1cccc3ccccc13)CC2` [Example I-80, (1S)-4-cyclobutyl-7-methoxy-N-(naphthalene-1-sulfonyl)-2,3-dihydro-1H-indene-1-carboxamide]: in assay [1], the Emax fell in the range of 50 to 150% and the EC50 lay in the range of 3 to 10 µM. Besides, in assay [2], the “Maximum % activity (with co-corrector)” value is “+++ (≥350)” and the concentration giving a half-maximal response (EC50) was in the range of 3 to 10 µM.

With `COc1ccc(C2CCC2)c2c1[C@H](C(=O)NS(=O)(=O)c1cccc3ccccc13)CC2` [Example I-81, (1R)-4-cyclobutyl-7-methoxy-N-(naphthalene-1-sulfonyl)-2,3-dihydro-1H-indene-1-carboxamide], in assay [1], the Emax is not below 150% and the EC50 is less than 3 µM. Besides, in assay [2], the “Maximum % activity (with co-corrector)” value is listed as “+++ (≥350)” and the 50% effective concentration (EC50) is less than 3 µM.

With `O=C(NS(=O)(=O)c1cccc2ccccc12)C1CCCc2cccc(C3CCC3)c21` (stereo not shown) [Example I-82, 8-cyclobutyl-N-(naphthalene-1-sulfonyl)-1,2,3,4-tetrahydronaphthalene-1-carboxamide], in assay [1], the Emax is not below 150% and the EC50 is less than 3 µM. Further, in assay [2], the “Maximum % activity (with co-corrector)” value is recorded as “+++ (≥350)” and the EC50 was less than 3 µM.

As for `CC1(C(=O)NS(=O)(=O)c2cccc3ccccc23)CCc2cccc(C3CCC3)c21` (stereo not shown) [Example I-83, 7-cyclobutyl-1-methyl-N-(naphthalene-1-sulfonyl)-2,3-dihydro-1H-indene-1-carboxamide], in assay [1], the Emax is not below 150% and the EC50 is less than 3 µM. In assay [2], the “Maximum % activity (with co-corrector)” value is given as “+++ (≥350)” and the EC50 is less than 3 µM.
